Measured values published in PubChem BioAssay AID330 (DTP/NCI, 2004).
Values joined by “and” are separate entries in the source; they are usually repeats but may differ in a detail not shown here. Identical values can stand only once. Inconclusive results and toxic doses are left out. Peptide text beside a SMILES is read from it. * marks the point of attachment. Boc = CC(C)(C)OC(=O)*

Test system: P388 leukemia ip, CD2F1 mice, survival T/C
Assay: NCI In Vivo Anticancer Drug Screen. Data for tumor model P388 Leukemia (intraperitoneal) in CD2F1 (CDF1) mice
Settings: endpoint: median survival time, higher = longer survival
Procedure, shortened: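 Mice carrying the transplanted tumor received test compound or vehicle. Survival was recorded in each group, and the value is the treated-group measurement divided by that of the vehicle-treated control group.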

[1] = dose: 50.0 mg/kg/injection, schedule: Q01DX005 (ip), vehicle: Klucel (hydroxypropylcellulose) (HPC)
[2] = dose: 100.0 mg/kg/injection, schedule: Q01DX005 (ip), vehicle: Klucel (hydroxypropylcellulose) (HPC)
[3] = dose: 200.0 mg/kg/injection, schedule: Q01DX005 (ip), vehicle: Klucel (hydroxypropylcellulose) (HPC)
[4] = dose: 50.0 mg/kg/injection, schedule: Q01DX005 (ip), vehicle: saline with Tween-80
[5] = dose: 100.0 mg/kg/injection, schedule: Q01DX005 (ip), vehicle: saline with Tween-80
[6] = dose: 200.0 mg/kg/injection, schedule: Q01DX005 (ip), vehicle: saline with Tween-80
[7] = dose: 50.0 mg/kg/injection, schedule: Q01DX009 (ip), vehicle: saline with Tween-80
[8] = dose: 100.0 mg/kg/injection, schedule: Q01DX009 (ip), vehicle: saline with Tween-80
[9] = dose: 200.0 mg/kg/injection, schedule: Q01DX009 (ip), vehicle: saline with Tween-80
[10] = dose: 50.0 mg/kg/injection, schedule: Q01DX009 (ip), vehicle: Klucel (hydroxypropylcellulose) (HPC)
[11] = dose: 100.0 mg/kg/injection, schedule: Q01DX009 (ip), vehicle: Klucel (hydroxypropylcellulose) (HPC)
[12] = dose: 200.0 mg/kg/injection, schedule: Q01DX009 (ip), vehicle: Klucel (hydroxypropylcellulose) (HPC)
[13] = dose: 60.0 mg/kg/injection, schedule: Q01DX005 (ip), vehicle: saline with Tween-80
[14] = dose: 120.0 mg/kg/injection, schedule: Q01DX005 (ip), vehicle: saline with Tween-80
[15] = dose: 240.0 mg/kg/injection, schedule: Q01DX005 (ip), vehicle: saline with Tween-80

Compound: CC(=O)NCCCCCC(=O)N(C)C
- T/C [1]: 96 % of control
- T/C [2]: 90 % of control
- T/C [3]: 98 % of control
- T/C (dose: 400.0 mg/kg/injection, schedule: Q01DX005 (ip), vehicle: Klucel (hydroxypropylcellulose) (HPC)): 98 % of control

Compound: NC(=S)Nc1cccc(C(F)(F)F)c1
- T/C (dose: 100.0 mg/kg/injection, schedule: Q01DX009 (ip), vehicle: other): 104 % of control
- T/C (dose: 200.0 mg/kg/injection, schedule: Q01DX009 (ip), vehicle: other): 115 % of control

Compound: COc1cccc2c1ccc1nonc12
- T/C [4]: 95 % of control
- T/C [5]: 88 % of control
- T/C [6]: 86 % of control

Compound: CC(C)(C#N)OC(=O)c1cccc(C(=O)OC(C)(C)C#N)c1Sc1ccccc1
- T/C (dose: 25.0 mg/kg/injection, schedule: Q01DX001 (ip), vehicle: other): 99 % of control
- T/C (dose: 50.0 mg/kg/injection, schedule: Q01DX001 (ip), vehicle: other): 105 % of control
- T/C (dose: 100.0 mg/kg/injection, schedule: Q01DX001 (ip), vehicle: other): 98 % of control and 105 % of control

Compound: O=C(O)c1ccc(N/N=C/C(F)(F)F)cc1
- T/C (dose: 60.0 mg/kg/injection, schedule: Q01DX005 (ip), vehicle: saline + Tween-80 + alcohol): 96 % of control
- T/C (dose: 120.0 mg/kg/injection, schedule: Q01DX005 (ip), vehicle: saline + Tween-80 + alcohol): 94 % of control
- T/C (dose: 240.0 mg/kg/injection, schedule: Q01DX005 (ip), vehicle: saline + Tween-80 + alcohol): 102 % of control

Compound: COc1ccc2c3c1OC1C(O)C=CC4C(C2O)N(C)CCC341 (centres undefined)
- T/C (dose: 50.0 mg/kg/injection, schedule: Q01DX005 (ip), vehicle: saline + Tween-80 + alcohol): 100 % of control
- T/C (dose: 100.0 mg/kg/injection, schedule: Q01DX005 (ip), vehicle: saline + Tween-80 + alcohol): 100 % of control
- T/C (dose: 200.0 mg/kg/injection, schedule: Q01DX005 (ip), vehicle: saline + Tween-80 + alcohol): 100 % of control

Compound: CC(NC(=O)CCl)C(=O)O (centres undefined)
- T/C (dose: 25.0 mg/kg/injection, schedule: Q01DX009 (ip), vehicle: saline with Tween-80): 105 % of control and 109 % of control
- T/C [7]: 101 % of control and 103 % of control
- T/C (dose: 50.0 mg/kg/injection, schedule: Q01DX009 (ip), vehicle: saline): 101 % of control
- T/C [8]: 105 % of control and 95 % of control
- T/C (dose: 100.0 mg/kg/injection, schedule: Q01DX009 (ip), vehicle: saline): 105 % of control
- T/C [9]: 103 % of control
- T/C (dose: 200.0 mg/kg/injection, schedule: Q01DX009 (ip), vehicle: saline): 101 % of control

Compound: O=C1CCCC2OC3CCCC(=O)C3C(c3ccccc3)C12 (centres undefined)
- T/C (dose: 25.0 mg/kg/injection, schedule: Q01DX001 (ip), vehicle: Klucel (hydroxypropylcellulose) (HPC)): 96 % of control
- T/C (dose: 50.0 mg/kg/injection, schedule: Q01DX001 (ip), vehicle: Klucel (hydroxypropylcellulose) (HPC)): 100 % of control
- T/C (dose: 100.0 mg/kg/injection, schedule: Q01DX001 (ip), vehicle: Klucel (hydroxypropylcellulose) (HPC)): 90 % of control

Compound: O/N=C1/CCCCC/C1=N/O
- T/C [7]: 98 % of control
- T/C [8]: 100 % of control
- T/C [9]: 100 % of control
- T/C (dose: 400.0 mg/kg/injection, schedule: Q01DX009 (ip), vehicle: saline with Tween-80): 107 % of control

Compound: CCN1C2OC3CCC2(C)C2C(OC)C4(O)C1C32C1CC2C(OC)CC4(O)C1C2O (centres undefined)
- T/C (dose: 0.94 mg/kg/injection, schedule: Q01DX005 (ip), vehicle: saline + alcohol): 106 % of control
- T/C (dose: 1.88 mg/kg/injection, schedule: Q01DX005 (ip), vehicle: saline + alcohol): 102 % of control
- T/C (dose: 3.75 mg/kg/injection, schedule: Q01DX005 (ip), vehicle: saline + alcohol): 108 % of control
- T/C (dose: 7.5 mg/kg/injection, schedule: Q01DX005 (ip), vehicle: saline + alcohol): 102 % of control

Compound: CCCN1C=C(C(=O)OC)C(N)=C(C#N)/C1=C\C=C(/C#N)C(=O)OC
- T/C (dose: 50.0 mg/kg/injection, schedule: Q04DX002 (ip), vehicle: Klucel (hydroxypropylcellulose) (HPC)): 93 % of control
- T/C (dose: 100.0 mg/kg/injection, schedule: Q04DX002 (ip), vehicle: Klucel (hydroxypropylcellulose) (HPC)): 100 % of control
- T/C (dose: 200.0 mg/kg/injection, schedule: Q04DX002 (ip), vehicle: Klucel (hydroxypropylcellulose) (HPC)): 90 % of control

Compound: COc1cc2c(c(OC)c1OC)-c1ccc(OC)c(=O)cc1[C@@H](NC(C)=O)CC2
- T/C (dose: 0.02 mg/kg/injection, schedule: Q01DX009 (ip), vehicle: saline): 117 % of control
- T/C (dose: 0.06 mg/kg/injection, schedule: Q01DX009 (ip), vehicle: saline): 119 % of control
- T/C (dose: 0.08 mg/kg/injection, schedule: Q01DX009 (ip), vehicle: saline): 150 % of control
- T/C (dose: 0.13 mg/kg/injection, schedule: Q01DX005 (ip), vehicle: saline): 120 % of control
- T/C (dose: 0.16 mg/kg/injection, schedule: Q01DX009 (ip), vehicle: saline): 156 % of control
- T/C (dose: 0.32 mg/kg/injection, schedule: Q01DX009 (ip), vehicle: saline): 186 % of control
- T/C (dose: 0.37 mg/kg/injection, schedule: Q01DX010 (ip), vehicle: saline): 168 % of control
- T/C (dose: 0.4 mg/kg/injection, schedule: Q01DX009 (ip), vehicle: water): 176 % of control
- T/C (dose: 0.5 mg/kg/injection, schedule: Q01DX005 (ip), vehicle: saline): 169 % of control
- T/C (dose: 0.64 mg/kg/injection, schedule: Q01DX009 (ip), vehicle: saline): 225 % of control
- T/C (dose: 0.75 mg/kg/injection, schedule: Q01DX010 (ip), vehicle: saline): 159 % of control
- T/C (dose: 1.0 mg/kg/injection, schedule: Q01DX005 (ip), vehicle: saline): 160 % of control and 197 % of control and 205 % of control
- T/C (dose: 1.25 mg/kg/injection, schedule: Q01DX009 (ip), vehicle: saline): 100 % of control (2×) and 281 % of control
- T/C (dose: 2.0 mg/kg/injection, schedule: Q01DX005 (ip), vehicle: saline): 175 % of control

Compound: ClCC1=NC2CCCCC2N1 (centres undefined)
- T/C [4]: 102 % of control
- T/C [5]: 98 % of control

Compound: Cc1cc(=Nc2ccc3c(c2)c(N)cc(C)[n+]3C)nc(N)n1C
- T/C (dose: 6.25 mg/kg/injection, schedule: Q01DX005 (ip), vehicle: Klucel (hydroxypropylcellulose) (HPC)): 107 % of control
- T/C (dose: 12.5 mg/kg/injection, schedule: Q01DX005 (ip), vehicle: Klucel (hydroxypropylcellulose) (HPC)): 107 % of control
- T/C (dose: 25.0 mg/kg/injection, schedule: Q01DX005 (ip), vehicle: Klucel (hydroxypropylcellulose) (HPC)): 104 % of control

Compound: OCCSc1nc2ccc(N=Cc3ccccc3O)cc2s1
- T/C [10]: 100 % of control
- T/C [11]: 100 % of control
- T/C [12]: 90 % of control

Compound: CC1CC(=O)c2c(nn(C)c2COCc2ccccc2)C1 (centres undefined)
- T/C [13]: 102 % of control
- T/C [14]: 91 % of control
- T/C [15]: 96 % of control

Compound: Nc1nnc2nc(CC(=O)/C=C/c3ccccc3)c(CC(=O)/C=C/c3ccccc3)nn12
- T/C (dose: 50.0 mg/kg/injection, schedule: Q01DX005 (ip), vehicle: saline): 98 % of control
- T/C (dose: 100.0 mg/kg/injection, schedule: Q01DX005 (ip), vehicle: saline): 97 % of control
- T/C (dose: 200.0 mg/kg/injection, schedule: Q01DX005 (ip), vehicle: saline): 104 % of control

Compound: O=C(Nc1cccc2ccccc12)C1C(=O)C(=O)N(c2cccc3ccccc23)C1=O (centres undefined)
- T/C [10]: 103 % of control
- T/C [11]: 105 % of control
- T/C [12]: 100 % of control

Compound: O=C1c2cccnc2C(=O)C2CC3=C(CCCC3)CC12 (centres undefined)
- T/C [4]: 100 % of control
- T/C [5]: 100 % of control
- T/C [6]: 100 % of control

Compound: CSCCC(NC(=O)C(CC(C)C)NC(=O)OC(C)(C)C)C(N)=O (stereo not drawn) (Boc-Leu-Met-NH2; configuration not given here)
- T/C [1]: 98 % of control
- T/C [2]: 91 % of control
- T/C [3]: 95 % of control

Compound: CCOC(=O)c1c(Cl)c(-c2ccccc2)c(=O)n2c1[nH]c1ccccc12
- T/C (dose: 100.0 mg/kg/injection, schedule: Q01DX001 (ip), vehicle: saline with Tween-80): 100 % of control
- T/C (dose: 200.0 mg/kg/injection, schedule: Q01DX001 (ip), vehicle: saline with Tween-80): 101 % of control
- T/C (dose: 400.0 mg/kg/injection, schedule: Q01DX001 (ip), vehicle: saline with Tween-80): 102 % of control

Compound: C/C(O)=C(/N=Nc1ccccc1)C(=O)O
- T/C [13]: 110 % of control
- T/C [14]: 98 % of control

Compound: COc1ccc(-n2cccc2/C=N\O)cc1OC
- T/C [13]: 93 % of control
- T/C [14]: 94 % of control
- T/C [15]: 93 % of control
